Patent publication US20230322722A1, “MODULATORS OF MYC FAMILY PROTO-ONCOGENE PROTEIN” (Nalo Therapeutics, priority 2020, published 2023)
One block for each compound: values may come before it.

Key:
Type in all cases: cell-based
MycN protein = target: T1, MycN protein (Homo sapiens, UniProt P04198); assay: Degradation of MycN protein, Western blot, SKNBE2 cells (Example 160)
T1 construct: either 2×10^6 of L-363 (human leukemia cell line) or SKNBE2 (neuroblastoma cell line) cells; endogenous in cells; host or cells: SKNBE2 / SK-N-BE(2) neuroblastoma cells
T1 sequence (P04198 1-464): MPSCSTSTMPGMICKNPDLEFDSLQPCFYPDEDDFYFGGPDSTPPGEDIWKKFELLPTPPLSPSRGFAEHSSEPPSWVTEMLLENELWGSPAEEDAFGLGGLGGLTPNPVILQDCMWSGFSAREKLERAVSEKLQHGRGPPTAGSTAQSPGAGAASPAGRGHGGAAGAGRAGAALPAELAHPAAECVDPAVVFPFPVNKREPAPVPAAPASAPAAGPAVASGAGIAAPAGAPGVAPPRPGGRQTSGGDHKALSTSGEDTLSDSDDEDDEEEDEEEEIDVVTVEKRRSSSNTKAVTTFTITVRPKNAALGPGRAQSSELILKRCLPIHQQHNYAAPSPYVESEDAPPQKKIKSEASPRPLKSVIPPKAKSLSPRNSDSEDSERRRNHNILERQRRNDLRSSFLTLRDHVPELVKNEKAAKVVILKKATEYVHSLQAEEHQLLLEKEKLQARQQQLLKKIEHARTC
Procedure: (§1) In a T150 flask was plated either 2×10^6 of L-363 (human leukemia cell line) or SKNBE2 (neuroblastoma cell line) cells in a total of 30 mL containing Roswell Park Memorial Institute (RPMI) 1640 Medium (Thermo Fisher, Cat. #11875-085), 10% Fetal Bovine Serum (FBS, Thermo Fisher: Cat. #10437-028), 1% Penicillin/streptomycin (Thermo Fisher: Cat. #10378016), and 1% Amophotericin B (Thermo Fisher, Cat. #15290026). The cells were split every 72 hours by reseeding the L-363 or SKNBE2 cells, and the passage number was noted. It is noteworthy that cell cultures that were above 40 passages were not used, and most experiments were done with cells of less than 30 passages.
(§2) In a 6-well cell culture plate, a total of 3 mL of either 1×10^6 cells/mL of L-363 or SKNBE2 cells were seeded, resulting in a total of 3×10^6 cells per well. To each well containing 3 mL of either L-363 or SKNBE2 cell line was added 6 uL of MycN modulating compound (1 mM) and the resulting plate was shaken from left to right, and not swirled. After 6 hours, the cells were placed in a 15 mL falcon tube and spun at 500 Gs at 4° C. in a swinging bucket centrifuge. The medium was then carefully removed without disturbing the pellet. The pellet was then washed with 3 mLs of chilled phosphate buffered saline (PBS) and subjected to the spin cycle. PBS was then removed and the pellet was lysed in 200 uL of radioimmunoprecipitation (RIPA) lysis buffer (Thermo Fisher: Cat. #899000) that is supplemented with protease and phosphatase inhibitors (Thermo Fisher: Cat. #A32959). The cell lysate was then subjected to spinning in a centrifuge for 10 minutes at 13000 G at 4° C. The supernatant was then carefully transferred to a fresh eppendorf tube without disturbing the pellet (˜180 uL). The protein concentration of the cell lysate was then determined by using a bicinchoninic acid (BCA assay) according to manufacturer's protocol (Thermo Fisher: Cat. #23227).
(§3) Cell lysate, approximately 25 ug-30 ug, was loaded per well in a 4-20% polyacrylamide gel (Biorad. Cat. #5671094). After running the dye front off of the gel, the gel was transferred to a nitrocellulose membrane (Biorad: Cat. #1704159) using the transblot turbo system (Biorad: Cat. #1704150) according to manufacturer's protocol. After transferring for 30 minutes, the membrane was blocked with 5% BSA for 1 hour at room temperature. The BSA was then washed off and the primary antibody of choice (1:500) was added, and the membrane was incubated with the primary antibody at 4° C. for overnight. The next morning, the primary antibody was removed and the membrane was washed with 1×-TBST for 10 minutes and repeated three more times. Following the last wash, a secondary antibody (Molecular Devices. Cat. #R8209 or R8208) was added at 1:5000 dilution and incubated for 1 hour at room temperature. Following the incubation with the secondary antibody, the membrane was washed with 1×-TBST for 10 minutes and repeated three more times. Following the last wash, the membrane was washed with de-ionized water twice and dried for at least two hours. Once the membrane is completely dry, the Molecular Devices Spectra Max western system was used to observe the bands. The western image was saved and the band density was measured with ImageJ software.

MycC protein = target: T2, MycC protein (Homo sapiens, UniProt P01106); assay: Degradation of MycC protein, Western blot, L-363 cells (Example 160); details: for inhibition at 2 µM: 6 h
T2 construct: either 2×10^6 of L-363 (human leukemia cell line) or SKNBE2 (neuroblastoma cell line) cells; endogenous in cells; host or cells: L-363 / L363 human leukemia cells
Procedure: as §1, §2, §3

MycC protein (c-myc) = target: T3, MycC protein (c-myc) (Homo sapiens, UniProt P01106); assay: Degradation of MycC protein, 24 h treatment, JESS Western, L363 cells (Example 161); details: L-363 cells
T3 construct: either 2×10^6 of L-363 (human leukemia cell line) cells; endogenous in cells; host or cells: L-363 / L363 human leukemia cells
Procedure: (§4) For L363 cells (suspension), 1E6 cells were plated into each well of a 6 well plate. For SK-N-BE(2) cells (adherent), 5E5 cells were plated into each well of a 6 well dish. […] All compounds were diluted to 10 mM in DMSO. Cells were treated with the compound for 24 hrs, then for both cell types, media containing cells were removed from wells into a 15 ml centrifuge tube, and remaining adherent SK-N-BE(2) cells were also scraped from the wells into the appropriate tubes. Tubes were centrifuged, cells were washed with PBS then re-centrifuged to pellet cells. A RIPA buffer cocktail was added to the cells on ice for 5 mins. Cell lysates were clarified by centrifugation and stored at −80 degrees until required. BCA assay was performed on each lysate to determine the protein concentration.
(§5) For validation studies of antibodies, lysates and antibodies were used at a number of concentrations (Lysates: 2, 1, 0.2 mg/ml; Antibodies: 1 in 50, 1 in 200 dilution). Once an appropriate lysate concentration and antibody concentration was determined, samples were screened in the JESS technology (Protein Simple, San Jose, CA—https://www.proteinsimple.com/jess.html).
(§6) Target protein antibodies (n-myc and c-myc) were detected in the chemi-luminescence channel and loading controls (tubulin and GAPDH) were detected using a Near Infra Red (NIR) labeled secondary antibody.
(§7) For SK-N-EB2 adherent cells, 5E5 cells in 1.9 mls media were plated into 6 well dishes and incubated for 24 hrs. […] Cells were scrapped off the plate, centrifuged, washed with PBS, centrifuged, then a RIPA buffer cocktail added to the cells (100 ul), centrifuged and stored at −80 for later analysis. For L363 suspension cells, 1E6 cells were plated into […] (950 ul media) and incubated for 24 hrs. […] Cells were aspirated into tubes, centrifuged, washed with PBS, centrifuged, then a RIPA buffer cocktail added to the cells (100 ul), centrifuged and stored at −80 for later analysis.
(§8) For Western blot, a BCA (total protein) assay was run on all samples, these were then run in batches of 5 compounds plus control (DMSO) on each Western blot run—n-myc and c-myc were run in separate experiments in the chemiluminescence channel. Both tubulin and GAPDH were run as loading controls in all lanes in the near infra red channel.

MycN protein (n-myc) = target: T4, MycN protein (n-myc) (Homo sapiens, UniProt P04198); assay: Degradation of MycN protein, 24 h treatment, JESS Western, SK-N-BE(2) cells (Example 161); details: SKNBE2 cells
T4 construct: either 2×10^6 of L-363 (human leukemia cell line) or SKNBE2 (neuroblastoma cell line) cells; endogenous in cells; host or cells: SKNBE2 / SK-N-BE(2) neuroblastoma cells
T4 sequence (P04198 1-464): T1 sequence (P04198 1-464)
Procedure: as §4, §5, §6, §7, §8

T2 sequence (P01106 whole entry): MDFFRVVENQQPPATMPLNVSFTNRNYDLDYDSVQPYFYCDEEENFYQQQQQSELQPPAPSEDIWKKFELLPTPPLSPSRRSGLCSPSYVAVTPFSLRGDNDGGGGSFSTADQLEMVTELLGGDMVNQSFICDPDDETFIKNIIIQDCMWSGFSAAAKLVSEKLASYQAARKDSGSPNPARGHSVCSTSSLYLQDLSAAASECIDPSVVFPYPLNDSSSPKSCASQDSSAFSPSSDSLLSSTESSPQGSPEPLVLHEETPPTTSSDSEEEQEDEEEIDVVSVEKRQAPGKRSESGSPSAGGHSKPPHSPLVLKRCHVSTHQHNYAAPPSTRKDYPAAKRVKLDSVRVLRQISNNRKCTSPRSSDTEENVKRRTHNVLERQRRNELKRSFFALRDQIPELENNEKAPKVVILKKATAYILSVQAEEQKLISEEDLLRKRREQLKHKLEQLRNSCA
T3 sequence (P01106 whole entry): as above

% Degradation of MycN (SKNBE2) 6 h, 2 μM (MycN protein): * (degradation <20%) | inhibition at 2 µM (MycC protein): 50 to 79%
Compound: CN(c1nccc(Nc2cc(C3CC3)[nH]n2)n1)[C@H]1CC[C@H](NC(=O)C2CCCC(C(F)(F)F)C2)CC1 (stereo partly shown) [113 F1]

% Degradation of MycN (SKNBE2) 6 h, 2 μM (MycN protein): *** (degradation 50-79%) | % Degradation of MycC (L-363) 6 h, 2 μM (MycC protein): *** (degradation 50-79%)
Compound: CN(c1nccc(Nc2cc(C3CC3)[nH]n2)n1)[C@H]1CC[C@H](NC(=O)C2CCCC(C(F)(F)F)C2)CC1 (stereo partly shown) [113 F2]

Compound: CN(c1nccc(Nc2cc(C3CC3)[nH]n2)n1)C1CCN(CC(=O)Nc2cccc(C(F)(F)F)c2)CC1 [Compound 1, 2-(4-((4-((5-cyclopropyl-1H-pyrazol-3-yl)amino)pyrimidin-2-yl)(methyl)amino)piperidin-1-yl)-N-(3-(trifluoromethyl)phenyl)acetamide]
inhibition at 2 µM (MycN protein; 6 h): 50 to 79% | inhibition at 2 µM (MycC protein): 80 to 100%

Compound: CN(c1nccc(Nc2cc(C3CC3)[nH]n2)n1)C1CCN(CC(=O)NC2Cc3ccc(C#N)cc3C2)CC1 (stereo not shown) [Compound 2, N-(5-cyano-2,3-dihydro-1H-inden-2-yl)-2-(4-((4-((5-cyclopropyl-1H-pyrazol-3-yl)amino)pyrimidin-2-yl)(methyl)amino)piperidin-1-yl)acetamide]
inhibition at 2 µM (MycN protein; 6 h): 80 to 100% | inhibition at 2 µM (MycC protein): 80 to 100%

Compound: CN(c1nccc(Nc2cc(C3CC3)[nH]n2)n1)C1CCN(CC(=O)Nc2cccc(S(C)(=O)=O)c2)CC1 [Compound 3, 2-(4-((4-((5-cyclopropyl-1H-pyrazol-3-yl)amino)pyrimidin-2-yl)(methyl)amino)piperidin-1-yl)-N-(3-(methylsulfonyl)phenyl)acetamide]
inhibition at 2 µM (MycN protein; SKNBE2, 6 h): 50 to 79% | inhibition at 2 µM (MycC protein): 80 to 100%

Compound: CN(c1cc(C2CC2)[nH]n1)c1ccnc(N(C)C2CCN(CC(=O)Nc3cccc(C(F)(F)F)c3)CC2)n1 [Compound 4, 2-(4-((4-((5-cyclopropyl-1H-pyrazol-3-yl)(methyl)amino)pyrimidin-2-yl)(methyl)amino)piperidin-1-yl)-N-(3-(trifluoromethyl)phenyl)acetamide]
inhibition at 2 µM (MycN protein; SKNBE2, 6 h): < 20% | inhibition at 2 µM (MycC protein): 20 to 49%

Compound: CS(=O)(=O)c1cccc(NC(=O)CN2CCC(Nc3nccc(Nc4cc(C5CC5)[nH]n4)n3)CC2)c1 [Compound 6, 2-(4-((4-((5-cyclopropyl-1H-pyrazol-3-yl)amino)pyrimidin-2-yl)amino)piperidin-1-yl)-N-(3-(methylsulfonyl)phenyl)acetamide]
inhibition at 2 µM (MycN protein; 6 h): 50 to 79% | inhibition at 2 µM (MycC protein): 80 to 100%

Compound: CN(c1nccc(Nc2cc(C3CC3)[nH]n2)n1)C1CCN(CC(=O)Nc2cn(C)nn2)CC1 [Compound 8, 2-(4-((4-((5-cyclopropyl-1H-pyrazol-3-yl)amino)pyrimidin-2-yl)(methyl)amino)piperidin-1-yl)-N-(1-methyl-1H-1,2,3-triazol-4-yl)acetamide]
inhibition at 2 µM (MycN protein; SKNBE2, 6 h): 50 to 79% | inhibition at 2 µM (MycC protein): 80 to 100%

Compound: CC(C(=O)Nc1cccc(S(C)(=O)=O)c1)N1CCC(N(C)c2nccc(Nc3cc(C4CC4)[nH]n3)n2)CC1 (stereo not shown) [Compound 9]
inhibition at 2 µM (MycN protein; 6 h): 80 to 100% | inhibition at 2 µM (MycC protein): 80 to 100%

Compound: CN(c1nccc(Nc2cc(C3CC3)[nH]n2)n1)C1CCN(CC(=O)Nc2cn(C3COC3)cn2)CC1 [Compound 10, 2-(4-((4-((5-cyclopropyl-1H-pyrazol-3-yl)amino)pyrimidin-2-yl)(methyl)amino)piperidin-1-yl)-N-(1-(oxetan-3-yl)-1H-imidazol-4-yl)acetamide]
inhibition at 2 µM (MycN protein; SKNBE2, 6 h): 50 to 79% | inhibition at 2 µM (MycC protein): 80 to 100%

inhibition at 3 µM (MycC protein (c-myc)): < 20% | inhibition at 6 µM (MycC protein (c-myc)): 80 to 100% | inhibition at 1 µM (MycN protein (n-myc)): < 20% | inhibition at 3 µM (MycN protein (n-myc)): 20 to 49% | inhibition at 6 µM (MycN protein (n-myc)): 50 to 79%
Compound: CN1CCC(Nc2nccc(Nc3cc(C4CC4)[nH]n3)n2)CC1 [Compound 37, N4-(5-Cyclopropyl-1H-pyrazol-3-yl)-N2-(1-methylpiperidin-4-yl)pyrimidine-2,4-diamine]

Compound: CN(c1nccc(Nc2cc(C3CC3)[nH]n2)n1)C1CCN(C2CC2)CC1 [Compound 38, N4-(5-Cyclopropyl-1H-pyrazol-3-yl)-N2-(1-cyclopropylpiperidin-4-yl)-N2-methylpyrimidine-2,4 diamine]
inhibition at 0.5 µM (MycC protein (c-myc)): 50 to 79% | inhibition at 1 µM (MycC protein (c-myc)): 80 to 100% | inhibition at 3 µM (MycC protein (c-myc)): 80 to 100% | inhibition at 6 µM (MycC protein (c-myc)): 80 to 100% | inhibition at 0.5 µM (MycN protein (n-myc)): 20 to 49% | inhibition at 1 µM (MycN protein (n-myc)): 50 to 79% | inhibition at 3 µM (MycN protein (n-myc)): 80 to 100% | inhibition at 6 µM (MycN protein (n-myc)): 80 to 100%

Compound: CN(c1nccc(Nc2cc(C3CC3)[nH]n2)n1)C1CCN(Cc2cccc(S(C)(=O)=O)c2)CC1 [Compound 39, N4-(5-Cyclopropyl-1H-pyrazol-3-yl)-N2-methyl-N2-(1-(3-(methylsulfonyl)benzyl)piperidin-4-yl)pyrimidine-2,4-diamine]
inhibition at 1 µM (MycC protein (c-myc)): 50 to 79% | inhibition at 3 µM (MycC protein (c-myc)): 80 to 100% | inhibition at 6 µM (MycC protein (c-myc)): 80 to 100% | inhibition at 3 µM (MycN protein (n-myc)): 80 to 100% | inhibition at 6 µM (MycN protein (n-myc)): 80 to 100%

Compound: CN(c1nccc(Nc2cc(C3CC3)[nH]n2)n1)C1CCN(Cc2cc(F)cc(F)c2)CC1 [Compound 40, N4-(5-Cyclopropyl-1H-pyrazol-3-yl)-N2-(1-(3,5-difluorobenzyl)piperidin-4-yl)-N2-methylpyrimidine-2,4-diamine]
inhibition at 0.5 µM (MycC protein (c-myc)): < 20% | inhibition at 1 µM (MycC protein (c-myc)): 80 to 100% | inhibition at 3 µM (MycC protein (c-myc)): 80 to 100% | inhibition at 6 µM (MycC protein (c-myc)): 80 to 100% | inhibition at 0.5 µM (MycN protein (n-myc)): < 20% | inhibition at 1 µM (MycN protein (n-myc)): 20 to 49% | inhibition at 3 µM (MycN protein (n-myc)): 80 to 100% | inhibition at 6 µM (MycN protein (n-myc)): 80 to 100%
